How the values were obtained:
Assay in all cases: relative viability (nuclei count vs DMSO), 5 days (fraction); higher = more cells survive
[1] = compound: O=C(O)c1ccc2c(c1)nc(Nc1cccc(Cl)c1)c1ccncc12 [Silmitasertib] + C[C@@H](Oc1cc(-c2cnn(C3CCNCC3)c2)cnc1N)c1c(Cl)ccc(F)c1Cl [Crizotinib] (partner 1 µM)
How it was run: (§1)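 Nuclei were stained with Hoechst during a one-step fixation (final 0.05% Triton X-100, 1% formaldehyde, 1 ug/ml Hoechst) carried out 5 days after dosing, then counted on 4× images. The cells, lung cancer lines in 1536-well plates, had been dosed by pin tool the day after seeding with one drug alone or a fixed anchor-drug dose plus five library-drug doses (not always all listed) in √10 steps. Relative viability is the nuclei count in treated wells divided by that in vehicle wells, and each value is the median of duplicate plates.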

[2] = compound: O=C(O)c1ccc2c(c1)nc(Nc1cccc(Cl)c1)c1ccncc12 [Silmitasertib] + CS(=O)(=O)N1CCN(Cc2cc3nc(-c4cccc5[nH]ncc45)nc(N4CCOCC4)c3s2)CC1 [Pictilisib] (partner 1 µM)
How it was run: as §1

[3] = compound: O=C(O)c1ccc2c(c1)nc(Nc1cccc(Cl)c1)c1ccncc12 [Silmitasertib] + CS(=O)(=O)CCNCc1ccc(-c2ccc3ncnc(Nc4ccc(OCc5cccc(F)c5)c(Cl)c4)c3c2)o1 [Lapatinib] (partner 2 µM)
How it was run: as §1

[4] = compound: O=C(O)c1ccc2c(c1)nc(Nc1cccc(Cl)c1)c1ccncc12 [Silmitasertib] + N=C(N)NC(=N)NCCc1ccccc1 [Phenformin] (partner 250 µM)
How it was run: as §1

[5] = compound: O=C(O)c1ccc2c(c1)nc(Nc1cccc(Cl)c1)c1ccncc12 [Silmitasertib] + CC1(C)CCC(c2ccc(Cl)cc2)=C(CN2CCN(c3ccc(C(=O)NS(=O)(=O)c4ccc(N[C@H](CCN5CCOCC5)CSc5ccccc5)c(S(=O)(=O)C(F)(F)F)c4)cc3)CC2)C1 [Navitoclax] (partner 0.5 µM)
How it was run: as §1

[6] = compound: O=C(O)c1ccc2c(c1)nc(Nc1cccc(Cl)c1)c1ccncc12 [Silmitasertib] + COc1cc2c(Oc3ccc(NC(=O)C4(C(=O)Nc5ccc(F)cc5)CC4)cc3F)ccnc2cc1OCCCN1CCOCC1 [Foretinib] (partner 0.25 µM)
How it was run: as §1

[7] = compound: O=C(O)c1ccc2c(c1)nc(Nc1cccc(Cl)c1)c1ccncc12 [Silmitasertib] + Cc1nc(NC(=O)N2CCC[C@H]2C(N)=O)sc1-c1ccnc(C(C)(C)C(F)(F)F)c1 [Alpelisib] (partner 2 µM)
How it was run: as §1

[8] = compound: O=C(O)c1ccc2c(c1)nc(Nc1cccc(Cl)c1)c1ccncc12 [Silmitasertib] + C[C@]1(O)C[C@@H](c2nc(-c3ccc4ccc(-c5ccccc5)nc4c3)c3c(N)nccn32)C1 [Linsitinib] (partner 1 µM)
How it was run: as §1

[9] = compound: O=C(O)c1ccc2c(c1)nc(Nc1cccc(Cl)c1)c1ccncc12 [Silmitasertib] + O=C(c1cc(Cc2n[nH]c(=O)c3ccccc23)ccc1F)N1CCN(C(=O)C2CC2)CC1 [Olaparib] (partner 8 µM)
How it was run: as §1

[10] = compound: O=C(O)c1ccc2c(c1)nc(Nc1cccc(Cl)c1)c1ccncc12 [Silmitasertib] + Nc1ncn([C@H]2C[C@H](O)[C@@H](CO)O2)c(=O)n1 [Decitabine] (partner 2 µM)
How it was run: as §1

[11] = compound: O=C(O)c1ccc2c(c1)nc(Nc1cccc(Cl)c1)c1ccncc12 [Silmitasertib]
How it was run: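 A plate was accepted only when its control CV was below 25% and the cells had doubled at least once. Viability is defined from nuclear counts as treated wells divided by vehicle wells, with the median taken across plates. That median covers lung cancer cell lines grown in 1536-well plates, dosed by pinning at five √10-spaced library-drug concentrations, and counted in MetaXpress from 4× Hoechst images after 5 days.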

[12] = compound: O=C(O)c1ccc2c(c1)nc(Nc1cccc(Cl)c1)c1ccncc12 [Silmitasertib] + CC(C)C[C@H](NC(=O)[C@H](Cc1ccccc1)NC(=O)c1cnccn1)B(O)O [Bortezomib] (partner 0.002 µM)
How it was run: as §1

A549
relative viability ([1]; first compound 0.04 µM): 0.819 | relative viability ([1]; first compound 0.4 µM): 0.677 | relative viability ([1]; first compound 1.265 µM): 0.777 | relative viability ([1]; first compound 4 µM): 0.748 | relative viability ([2]; first compound 0.04 µM): 0.582 | relative viability ([2]; first compound 0.4 µM): 0.566 | relative viability ([2]; first compound 1.265 µM): 0.497 | relative viability ([2]; first compound 4 µM): 0.513 | relative viability ([3]; first compound 0.04 µM): 1.23 | relative viability ([3]; first compound 0.4 µM): 1.08 | relative viability ([3]; first compound 1.265 µM): 0.781 | relative viability ([3]; first compound 4 µM): 0.736 | relative viability ([4]; first compound 0.04 µM): 0.237 | relative viability ([4]; first compound 0.4 µM): 0.131 | relative viability ([4]; first compound 1.265 µM): 0.121 | relative viability ([4]; first compound 4 µM): 0.161 | relative viability ([5]; first compound 0.04 µM): 1.44 | relative viability ([5]; first compound 0.4 µM): 1.16 | relative viability ([5]; first compound 1.265 µM): 1.27 | relative viability ([5]; first compound 4 µM): 1.04 | relative viability ([6]; first compound 0.04 µM): 0.961 | relative viability ([6]; first compound 0.4 µM): 0.819 | relative viability ([6]; first compound 1.265 µM): 0.952 | relative viability ([6]; first compound 4 µM): 0.858 | relative viability ([7]; first compound 0.04 µM): 1.02 | relative viability ([7]; first compound 0.4 µM): 0.918 | relative viability ([7]; first compound 1.265 µM): 0.828 | relative viability ([7]; first compound 4 µM): 0.869 | relative viability ([8]; first compound 0.04 µM): 0.792 | relative viability ([8]; first compound 1.265 µM): 0.507 | relative viability ([8]; first compound 4 µM): 0.678 | relative viability ([9]; first compound 0.04 µM): 0.301 | relative viability ([9]; first compound 1.265 µM): 0.273 | relative viability ([9]; first compound 4 µM): 0.12 | relative viability ([10]; first compound 0.04 µM): 0.244 | relative viability ([10]; first compound 1.265 µM): 0.27 | relative viability ([10]; first compound 4 µM): 0.158 | relative viability ([11]; 0.04 µM): 1.03 | relative viability ([11]; 0.4 µM): 0.994 | relative viability ([11]; 1.265 µM): 1 | relative viability ([11]; 4 µM): 0.882

Calu-6
relative viability ([1]; first compound 0.04 µM): 0.915 | relative viability ([1]; first compound 0.4 µM): 0.721 | relative viability ([1]; first compound 1.265 µM): 0.727 | relative viability ([1]; first compound 4 µM): 0.527 | relative viability ([2]; first compound 0.04 µM): 0.99 | relative viability ([2]; first compound 0.4 µM): 0.934 | relative viability ([2]; first compound 1.265 µM): 0.628 | relative viability ([2]; first compound 4 µM): 0.359 | relative viability ([3]; first compound 0.04 µM): 1.13 | relative viability ([3]; first compound 0.4 µM): 0.945 | relative viability ([3]; first compound 1.265 µM): 0.761 | relative viability ([3]; first compound 4 µM): 0.51 | relative viability ([12]; first compound 0.04 µM): 1.13 | relative viability ([12]; first compound 0.4 µM): 0.868 | relative viability ([12]; first compound 1.265 µM): 0.824 | relative viability ([12]; first compound 4 µM): 0.602 | relative viability ([5]; first compound 0.04 µM): 1 | relative viability ([5]; first compound 0.4 µM): 0.783 | relative viability ([5]; first compound 1.265 µM): 0.661 | relative viability ([5]; first compound 4 µM): 0.374 | relative viability ([6]; first compound 0.04 µM): 0.963 | relative viability ([6]; first compound 0.4 µM): 0.83 | relative viability ([6]; first compound 1.265 µM): 0.846 | relative viability ([6]; first compound 4 µM): 0.616 | relative viability ([7]; first compound 0.04 µM): 0.984 | relative viability ([7]; first compound 0.4 µM): 0.938 | relative viability ([7]; first compound 1.265 µM): 0.755 | relative viability ([7]; first compound 4 µM): 0.571 | relative viability ([8]; first compound 0.04 µM): 1.04 | relative viability ([8]; first compound 0.4 µM): 0.862 | relative viability ([8]; first compound 1.265 µM): 0.878 | relative viability ([8]; first compound 4 µM): 0.49 | relative viability ([9]; first compound 0.04 µM): 0.654 | relative viability ([9]; first compound 0.4 µM): 0.28 | relative viability ([9]; first compound 1.265 µM): 0.445 | relative viability ([9]; first compound 4 µM): 0.39 | relative viability ([11]; 0.04 µM): 1.14 | relative viability ([11]; 0.4 µM): 0.898 | relative viability ([11]; 1.265 µM): 0.885 | relative viability ([11]; 4 µM): 0.663

EBC-1
relative viability ([1]; first compound 0.04 µM): 0.189 | relative viability ([1]; first compound 0.4 µM): 0.16 | relative viability ([1]; first compound 1.265 µM): 0.171 | relative viability ([1]; first compound 4 µM): 0.157 | relative viability ([2]; first compound 0.04 µM): 0.534 | relative viability ([2]; first compound 0.4 µM): 0.375 | relative viability ([2]; first compound 1.265 µM): 0.178 | relative viability ([2]; first compound 4 µM): 0.139 | relative viability ([3]; first compound 0.04 µM): 0.225 | relative viability ([3]; first compound 0.4 µM): 0.185 | relative viability ([3]; first compound 1.265 µM): 0.2 | relative viability ([3]; first compound 4 µM): 0.192 | relative viability ([12]; first compound 0.04 µM): 0.652 | relative viability ([12]; first compound 0.4 µM): 0.39 | relative viability ([12]; first compound 1.265 µM): 0.347 | relative viability ([12]; first compound 4 µM): 0.239 | relative viability ([5]; first compound 0.04 µM): 0.542 | relative viability ([5]; first compound 0.4 µM): 0.154 | relative viability ([5]; first compound 1.265 µM): 0.134 | relative viability ([5]; first compound 4 µM): 0.168 | relative viability ([6]; first compound 0.04 µM): 0.0961 | relative viability ([6]; first compound 0.4 µM): 0.0977 | relative viability ([6]; first compound 1.265 µM): 0.0913 | relative viability ([6]; first compound 4 µM): 0.0847 | relative viability ([7]; first compound 0.04 µM): 0.925 | relative viability ([7]; first compound 0.4 µM): 0.601 | relative viability ([7]; first compound 1.265 µM): 0.262 | relative viability ([7]; first compound 4 µM): 0.211 | relative viability ([8]; first compound 0.04 µM): 0.982 | relative viability ([8]; first compound 0.4 µM): 0.655 | relative viability ([8]; first compound 1.265 µM): 0.471 | relative viability ([8]; first compound 4 µM): 0.222 | relative viability ([9]; first compound 0.04 µM): 0.796 | relative viability ([9]; first compound 0.4 µM): 0.371 | relative viability ([9]; first compound 1.265 µM): 0.423 | relative viability ([9]; first compound 4 µM): 0.212 | relative viability ([11]; 0.04 µM): 1.09 | relative viability ([11]; 0.4 µM): 0.693 | relative viability ([11]; 1.265 µM): 0.591 | relative viability ([11]; 4 µM): 0.29
